Reference: publication PMC4008261, “Rewiring of regenerated axons by combining treadmill training with semaphorin3A inhibition” (Molecular Brain, 2014)

Legend:
SCT adult rats = experiment: Axonal regeneration after SCT (GAP43, 5-HT/GFAP immunostaining, BDA tracing); assay type: in vivo, rat; details: for number of GAP43 axons versus control: especially 1 mm caudal to the injury epicenter
Description: Rats were randomly divided into the following three experimental groups: 1) untrained + placebo, 2) untrained + SM-345431 and 3) trained + SM-345431. SCT was performed, and SM-345431 or placebo was administered at the lesion site via the newly developed DDS, which is described in detail below. Starting 1 week post-injury, treadmill training commenced with a BSS. Kinematic tests were performed monthly for 3 months after SCT using a rodent robotic device (Rodent robot 3000, Robomedica Inc.) that primarily assessed the performance of plantar stepping on a treadmill. Treadmill training was continued throughout the experimental period.
A total of 53 adult female Sprague-Dawley rats (200-250 g, 10-12 weeks old) were used in this study (3 rats died during the experimental period and were excluded from the statistical analysis). All procedures were approved by the experimental animal care committee of Keio University, School of Medicine and Murayama Medical Center (approval #12-8). All rats were anesthetized with an intraperitoneal injection of ketamine (100 mg/kg)/xylazine (10 mg/kg). The spinal cord at the level of the T10 lamina was exposed by T10 laminectomy, and the dorsal dura mater was opened. The exposed spinal cord was cut along the inner edge of the vertebra with a sharp micro-scissor. Two more cuts were made at the gap of the transected spinal cord by a scalpel to ensure total transection. SM-345431 or placebo was administered to the transected site via the newly developed DDS as described in detail below (Figure 1G-I). After these procedures, the back muscles and skin were closed. Rats were kept warm in an incubator (37°C) after surgery. To prevent dehydration in the rats, 10 ml of saline was subcutaneously injected daily until day 7. Ampicillin (0.4 g/kg) was also injected intramuscularly daily to prevent infection until day 7. The bladder was evacuated manually until autonomous emptying of the bladder was achieved. The re-transection procedure was performed at the same level as the primary SCT (15 rats total; 5 rats from each group). Kinematic data were recorded using similar procedures prior to re-transection surgery (on the same day) and on the day following re-transection surgery. For CST tracing, 10% BDA was injected as follows. Nine weeks after SM-345431 or placebo administration, BDA (10000 MW, Molecular Probes) was injected into six different sites of the sensorimotor cortices of the rats under general anesthesia (site 1: 2.0 mm lateral, 0 mm to bregma; site 2: 2.0 mm lateral, 2 mm posterior to bregma; site 3: 2.0 mm lateral, 4 mm posterior to bregma; site 4: 4 mm lateral, 0 mm to bregma; site 5: 4 mm lateral, 2 mm posterior to bregma and site 6: 4 mm lateral, 4 mm posterior to bregma). For each site, injections were performed at two different depths (1.2 mm and 1.6 mm), and 3 μl of 10% BDA was injected at a rate of 0.15 μl/min using a micro-injector. Three weeks after the BDA injection, rats were sacrificed and used for immunohistochemistry.
A novel matrix silicone preparation was developed to allow continuous drug delivery at the site of injury. The amount of drug released from this matrix silicone preparation in vitro was measured as described in Figure 1. Matrix silicone sheets (0.3 mm thick) containing SM-345431 were trimmed into 3-mm-square pieces to fit into the opened dura. After SCT, one piece of silicone sheet was placed on the transected spinal cord gap so that it could act on the spinal cord directly.
Twelve weeks after SCT, rats were deeply anaesthetized by an intraperitoneal injection of 14% chloral hydrate and then perfused intracardially with 4% paraformaldehyde (PFA) in 0.1 M phosphate-buffered saline (PBS). The spinal cord tissues were dissected and post-fixed in 4% PFA (24 h) and placed in 10% sucrose in 0.1 M PBS (24 h) followed by 30% sucrose in 0.1 M PBS (24 h). All the rats other than 3 rats died during the experimental period were used for the histological analysis. […]

[1] = Stability in a silicone sheet; assay type: physicochemical; details: compared with SM-216289
GSK3α = GSK3α (Homo sapiens, UniProt P49840); experiment: Kinase inhibition test; assay type: biochemical
Text: (§1) Table 2 Pharmacological profile of SM-345431 (part 2) | column: IC50 (μm)

TrkA = TrkA (Homo sapiens, UniProt P04629); experiment: Kinase inhibition test; assay type: biochemical
Text: as §1

[2] = test system: Cell proliferation, B-Cell+LPS; experiment: Pharmacological profile: cell proliferation; assay type: cell-based
Text: (§2) Table 1 Pharmacological profile of SM-345431 (part 1) | column: IC50 (μm)

[3] = test system: Cell proliferation, T-Cell+Con A; experiment: Pharmacological profile: cell proliferation; assay type: cell-based
Text: as §2

semaphorin3A = target: T1, semaphorin3A (Homo sapiens, UniProt Q14563); experiment: Collagen co-culture assay (E8 chick DRGs and semaphorin3A-expressing COS7 cell aggregates); assay type: cell-based; design: expressed in transfected cells; host or cells: COS7; details: chick embryonic DRG explants co-cultured with semaphorin3A-COS in collagen gel
T1 sequence (Q14563 21-771): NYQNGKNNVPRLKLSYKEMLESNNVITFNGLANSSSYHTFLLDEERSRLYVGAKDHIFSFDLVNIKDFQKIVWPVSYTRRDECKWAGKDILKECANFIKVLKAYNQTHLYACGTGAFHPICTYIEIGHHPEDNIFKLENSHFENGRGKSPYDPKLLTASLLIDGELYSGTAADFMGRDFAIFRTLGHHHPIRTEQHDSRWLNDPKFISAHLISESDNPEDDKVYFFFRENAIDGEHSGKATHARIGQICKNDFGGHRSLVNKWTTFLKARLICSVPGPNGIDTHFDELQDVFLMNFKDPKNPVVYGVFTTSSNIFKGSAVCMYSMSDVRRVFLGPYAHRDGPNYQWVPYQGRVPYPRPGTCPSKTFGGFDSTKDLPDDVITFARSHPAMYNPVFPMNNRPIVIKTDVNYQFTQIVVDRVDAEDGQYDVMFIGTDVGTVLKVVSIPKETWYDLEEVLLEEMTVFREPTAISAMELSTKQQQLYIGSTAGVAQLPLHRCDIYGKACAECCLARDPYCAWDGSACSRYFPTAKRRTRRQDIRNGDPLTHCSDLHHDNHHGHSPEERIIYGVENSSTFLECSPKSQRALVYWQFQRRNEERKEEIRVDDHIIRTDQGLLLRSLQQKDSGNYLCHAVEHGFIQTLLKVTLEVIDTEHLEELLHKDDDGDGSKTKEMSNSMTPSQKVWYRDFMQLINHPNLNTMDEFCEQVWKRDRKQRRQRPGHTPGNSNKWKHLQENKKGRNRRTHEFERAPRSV
Description: The growth cone collapse assay and collagen co-culture experiments were performed as previously described. To examine the effects of SM-345431-silicone, small pieces (2 × 1 × 0.3 mm; approximately 1 mg containing 1 μg of SM-345431) of the SM-345431-silicone or control-silicone were placed in a collagen gel adjacent to E8 chick DRGs and COS7 cell aggregates, as shown in Figure 1C.

[4] = SM-345431 combined with treadmill training
[5] = SM-345431 via silicone DDS alone

Sequence of TrkA (P04629 33-796, species assumed): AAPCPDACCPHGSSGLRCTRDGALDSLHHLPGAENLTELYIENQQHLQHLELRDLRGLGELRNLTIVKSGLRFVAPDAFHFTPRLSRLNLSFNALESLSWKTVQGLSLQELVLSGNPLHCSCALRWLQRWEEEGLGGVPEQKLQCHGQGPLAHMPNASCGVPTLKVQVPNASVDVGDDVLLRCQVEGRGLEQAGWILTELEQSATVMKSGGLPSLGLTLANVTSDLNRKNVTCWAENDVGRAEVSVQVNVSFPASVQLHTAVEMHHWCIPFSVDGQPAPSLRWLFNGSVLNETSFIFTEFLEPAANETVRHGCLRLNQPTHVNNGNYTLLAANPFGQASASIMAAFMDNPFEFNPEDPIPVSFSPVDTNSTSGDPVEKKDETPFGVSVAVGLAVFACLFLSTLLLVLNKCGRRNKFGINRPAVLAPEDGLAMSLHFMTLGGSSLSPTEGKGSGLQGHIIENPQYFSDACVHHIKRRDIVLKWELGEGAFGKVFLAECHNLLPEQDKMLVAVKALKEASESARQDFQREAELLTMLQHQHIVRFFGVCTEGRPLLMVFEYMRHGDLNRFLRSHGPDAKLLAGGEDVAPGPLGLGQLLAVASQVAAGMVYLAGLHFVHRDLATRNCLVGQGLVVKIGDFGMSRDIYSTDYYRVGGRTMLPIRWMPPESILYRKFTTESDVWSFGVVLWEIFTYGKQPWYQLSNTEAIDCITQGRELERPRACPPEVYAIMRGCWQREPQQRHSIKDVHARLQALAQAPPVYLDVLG
Sequence of GSK3α (P49840 whole entry, species assumed): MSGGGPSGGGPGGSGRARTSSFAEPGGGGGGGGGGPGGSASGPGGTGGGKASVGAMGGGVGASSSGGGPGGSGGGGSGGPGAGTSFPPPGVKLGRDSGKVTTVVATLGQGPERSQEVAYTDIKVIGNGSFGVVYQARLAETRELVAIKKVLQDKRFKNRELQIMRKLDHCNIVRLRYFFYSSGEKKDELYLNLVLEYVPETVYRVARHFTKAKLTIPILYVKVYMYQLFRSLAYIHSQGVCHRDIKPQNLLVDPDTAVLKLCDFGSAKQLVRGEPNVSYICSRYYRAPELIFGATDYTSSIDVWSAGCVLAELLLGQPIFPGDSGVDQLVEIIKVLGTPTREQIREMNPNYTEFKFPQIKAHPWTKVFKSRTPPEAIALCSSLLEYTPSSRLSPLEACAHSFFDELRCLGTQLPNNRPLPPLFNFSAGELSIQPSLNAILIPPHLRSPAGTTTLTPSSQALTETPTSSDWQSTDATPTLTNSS

Structure (SMILES): CC(=O)c1cc2c(=O)c3c(C(=O)O)c(O)c(O)cc3oc2c(C(C)=O)c1-c1coc2cc(O)c(O)c(C(=O)O)c2c1=O [SM-345431, Vinaxanthone]
- 5-HT-positive axons penetrating the GFAP-negative scar tissue versus control (SCT adult rats; [4]): significantly more 5-HT-positive axons penetrated the GFAP-negative scar tissue area
- CST axon regeneration (BDA tracing) (SCT adult rats; [4]): no clear CST regeneration beyond the lesion epicenter was observed
- number of GAP43 axons versus control (SCT adult rats; [4]): significantly increased
- 5-HT-positive axons penetrating the GFAP-negative scar tissue versus control (SCT adult rats; [5]): significantly more 5-HT-positive axons penetrated the GFAP-negative scar tissue area
- CST axon regeneration (BDA tracing) (SCT adult rats; [5]): no obvious CST regeneration beyond the lesion epicenter was observed
- number of GAP43 axons versus control (SCT adult rats; [5]): significantly increased
- stability in a silicone sheet [1]: better stability in a silicone sheet than SM-216289
- IC50 (GSK3α): 2.46 µM
- IC50 (TrkA): > 10 µM
- IC50 [2]: > 10 µM
- IC50 [3]: > 10 µM
- block of the chemo-repulsive effects of semaphorin3A on DRG neurites (semaphorin3A): chemo-repulsive effects of semaphorin3A were blocked by SM-345431 in a dose-dependent manner
